In PubChem BioAssay AID298 (DTP/NCI, 2004):
“And” between values parts separate entries of the source, which are not always exact repeats. Equal entries are not always repeated. Results filed as inconclusive are left out.

System: MX-1 breast xenograft, intrarenal, nude mice, tumor weight
Assay: NCI In Vivo Anticancer Drug Screen. Data for tumor model Human Mammary Carcinoma MX-1 Xenograft (intrarenal inoculation) in NU/NU BALB/C (nude) mice
Details: endpoint: mean tumor weight change, higher = larger tumour
Method in brief: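 Mice w/ transplanted tumors, drug vs vehicle; endpoint survival or tumor size; value = T/C.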

[1] = dose: 150.0 mg/kg/injection, schedule: Q04DX003 (ip), vehicle: saline with Tween-80
[2] = dose: 300.0 mg/kg/injection, schedule: Q04DX003 (ip), vehicle: saline with Tween-80
[3] = dose: 100.0 mg/kg/injection, schedule: Q04DX003 (sc), vehicle: saline
[4] = dose: 50.0 mg/kg/injection, schedule: Q01DX010 (sc), vehicle: saline
[5] = dose: 25.0 mg/kg/injection, schedule: Q04DX003 (ip), vehicle: saline
[6] = dose: 50.0 mg/kg/injection, schedule: Q04DX003 (ip), vehicle: saline

COc1ccc(O)cc1
T/C (dose: 50.0 mg/kg/injection, schedule: Q04DX003 (ip), vehicle: saline with Tween-80): 76 % of control | T/C (dose: 100.0 mg/kg/injection, schedule: Q04DX003 (ip), vehicle: saline with Tween-80): 87 % of control | T/C (dose: 200.0 mg/kg/injection, schedule: Q04DX003 (ip), vehicle: saline with Tween-80): 79 % of control | T/C (dose: 400.0 mg/kg/injection, schedule: Q04DX003 (ip), vehicle: saline with Tween-80): 53 % of control

C/C=C\C1OC1(C)c1cc(=O)c2c(C)cc3c(c2o1)C(=O)c1c(O)c(C2CC(C)(N(C)C)C(OC(C)=O)C(C)O2)cc(C2CC(N(C)C)C(O)C(C)O2)c1C3=O (stereo not given)
T/C (dose: 0.75 mg/kg/injection, schedule: Q04DX003 (ip), vehicle: saline + alcohol): 89 % of control | T/C (dose: 1.5 mg/kg/injection, schedule: Q04DX003 (ip), vehicle: saline + alcohol): 34 % of control and 50 % of control | T/C (dose: 3.0 mg/kg/injection, schedule: Q04DX003 (ip), vehicle: saline + alcohol): 29 % of control and 47 % of control | T/C (dose: 6.0 mg/kg/injection, schedule: Q04DX003 (ip), vehicle: saline + alcohol): 11 % of control and 32 % of control | T/C (dose: 12.0 mg/kg/injection, schedule: Q04DX003 (ip), vehicle: saline + alcohol): 39 % of control

CCC12C[N+]3([O-])CCc4c([nH]c5ccccc45)C(C(=O)OC)(c4cc5c(cc4OC)N(C)C4C(O)(C(=O)OC)C(OC(C)=O)C6(CC)C=CCN7CCC54C76)CC(C3)C1O2 (stereo not given)
T/C (dose: 80.0 mg/kg/injection, schedule: Q04DX003 (sc), vehicle: water): 109 % of control | T/C (dose: 160.0 mg/kg/injection, schedule: Q04DX003 (sc), vehicle: water): 117 % of control | T/C (dose: 320.0 mg/kg/injection, schedule: Q04DX003 (sc), vehicle: water): 123 % of control | T/C (dose: 640.0 mg/kg/injection, schedule: Q04DX003 (sc), vehicle: water): 88 % of control

O=c1c(O)c(-c2cc(O)c(O)c(O)c2)oc2cc(O)cc(O)c12
T/C (dose: 50.0 mg/kg/injection, schedule: Q04DX003 (sc), vehicle: saline with Tween-80): 95 % of control | T/C (dose: 100.0 mg/kg/injection, schedule: Q04DX003 (sc), vehicle: saline with Tween-80): 111 % of control | T/C (dose: 200.0 mg/kg/injection, schedule: Q04DX003 (sc), vehicle: saline with Tween-80): 115 % of control | T/C (dose: 400.0 mg/kg/injection, schedule: Q04DX003 (sc), vehicle: saline with Tween-80): 179 % of control

CCCCNP1(NCCCC)=NP(NCCCC)(NCCCC)=NP(NCCCC)(NCCCC)=NP(NCCCC)(NCCCC)=N1
T/C [1]: 89 % of control | T/C [2]: 73 % of control

Cc1nnc2ncccn12
T/C [3]: 86 % of control | T/C (dose: 200.0 mg/kg/injection, schedule: Q04DX003 (sc), vehicle: saline): 104 % of control

Oc1cccc2ccccc12
T/C (dose: 150.0 mg/kg/injection, schedule: Q04DX003 (ip), vehicle: water): 81 % of control

CCOC(=O)C(N)CSC(=O)NC (stereo not given)
T/C (dose: 112.5 mg/kg/injection, schedule: Q04DX003 (ip), vehicle: Klucel (hydroxypropylcellulose) (HPC)): 54 % of control | T/C (dose: 125.0 mg/kg/injection, schedule: Q04DX003 (sc), vehicle: saline): 72 % of control | T/C (dose: 225.0 mg/kg/injection, schedule: Q04DX003 (ip), vehicle: Klucel (hydroxypropylcellulose) (HPC)): 14 % of control | T/C (dose: 225.0 mg/kg/injection, schedule: Q04DX003 (sc), vehicle: saline): 26 % of control | T/C (dose: 450.0 mg/kg/injection, schedule: Q04DX003 (ip), vehicle: Klucel (hydroxypropylcellulose) (HPC)): 9 % of control | T/C (dose: 450.0 mg/kg/injection, schedule: Q04DX003 (sc), vehicle: saline): 2 % of control | T/C (dose: 900.0 mg/kg/injection, schedule: Q04DX003 (sc), vehicle: saline): -19 % of control

Cc1cc(SCC(=O)c2ccc(Br)cc2)cc(C)[o+]1
T/C [4]: 91 % of control | T/C (dose: 100.0 mg/kg/injection, schedule: Q01DX010 (sc), vehicle: saline): 124 % of control | T/C (dose: 200.0 mg/kg/injection, schedule: Q01DX010 (sc), vehicle: saline): 71 % of control | T/C (dose: 400.0 mg/kg/injection, schedule: Q01DX010 (sc), vehicle: saline): 102 % of control

Cc1cc2c(C(C)C)c(O)c(O)c(C=NCCO)c2c(O)c1-c1c(C)cc2c(C(C)C)c(O)c(O)c(C=NCCO)c2c1O
T/C (dose: 75.0 mg/kg/injection, schedule: Q04DX003 (ip), vehicle: saline with Tween-80): 111 % of control | T/C [1]: 86 % of control | T/C [2]: 58 % of control | T/C (dose: 600.0 mg/kg/injection, schedule: Q04DX003 (ip), vehicle: saline with Tween-80): 97 % of control | T/C (dose: 1200.0 mg/kg/injection, schedule: Q04DX003 (ip), vehicle: saline with Tween-80): 69 % of control

CC#CCOCC(O)CCl (stereo not given)
T/C (dose: 150.0 mg/kg/injection, schedule: Q04DX003 (ip), vehicle: suspension in saline): 91 % of control and 97 % of control | T/C (dose: 300.0 mg/kg/injection, schedule: Q04DX003 (ip), vehicle: suspension in saline): 97 % of control

CN(C)c1nc(N(C)C)nc(N(C)C)n1
T/C (dose: 12.5 mg/kg/injection, schedule: Q01DX010 (sc), vehicle: saline with Tween-80): 102 % of control | T/C (dose: 15.0 mg/kg/injection, schedule: Q01DX010 (sc), vehicle: saline with Tween-80): 84 % of control | T/C (dose: 25.0 mg/kg/injection, schedule: Q01DX010 (ip), vehicle: Klucel (hydroxypropylcellulose) (HPC)): 36 % of control | T/C (dose: 25.0 mg/kg/injection, schedule: Q01DX010 (sc), vehicle: saline with Tween-80): 56 % of control | T/C (dose: 30.0 mg/kg/injection, schedule: Q01DX010 (sc), vehicle: saline with Tween-80): 3 % of control | T/C (dose: 50.0 mg/kg/injection, schedule: Q01DX010 (sc), vehicle: saline with Tween-80): 7 % of control | T/C (dose: 60.0 mg/kg/injection, schedule: Q01DX010 (sc), vehicle: saline with Tween-80): -30 % of control | T/C (dose: 75.0 mg/kg/injection, schedule: Q04DX003 (sc), vehicle: saline with Tween-80): 37 % of control | T/C (dose: 100.0 mg/kg/injection, schedule: Q01DX010 (ip), vehicle: Klucel (hydroxypropylcellulose) (HPC)): -100 % of control | T/C (dose: 100.0 mg/kg/injection, schedule: Q01DX010 (sc), vehicle: saline with Tween-80): 9 % of control | T/C (dose: 120.0 mg/kg/injection, schedule: Q01DX010 (sc), vehicle: saline with Tween-80): -90 % of control | T/C (dose: 150.0 mg/kg/injection, schedule: Q04DX003 (sc), vehicle: saline with Tween-80): 16 % of control | T/C (dose: 200.0 mg/kg/injection, schedule: Q01DX010 (ip), vehicle: Klucel (hydroxypropylcellulose) (HPC)): -100 % of control | T/C (dose: 200.0 mg/kg/injection, schedule: Q01DX010 (sc), vehicle: saline with Tween-80): -5 % of control | T/C (dose: 300.0 mg/kg/injection, schedule: Q04DX003 (sc), vehicle: saline with Tween-80): -60 % of control

O=P1(N(CCCl)CCCl)NCCCO1 (stereo not given)
T/C (dose: 25.0 mg/kg/injection, schedule: Q01DX010 (sc), vehicle: saline): 3 % of control | T/C [5]: 1 % of control and -23 % of control | T/C [4]: -11 % of control | T/C [6]: -88 % of control and -100 % of control | T/C [3]: -95 % of control | T/C (dose: 200.0 mg/kg/injection, schedule: Q04DX003 (ip), vehicle: saline): -73 % of control

O=C(Nc1cccc(O)c1)C(Cl)=C(Cl)Cl
T/C (dose: 6.25 mg/kg/injection, schedule: Q04DX003 (ip), vehicle: other): 66 % of control | T/C (dose: 12.5 mg/kg/injection, schedule: Q04DX003 (ip), vehicle: DMSO): 112 % of control | T/C (dose: 12.5 mg/kg/injection, schedule: Q04DX003 (ip), vehicle: other): 68 % of control | T/C (dose: 25.0 mg/kg/injection, schedule: Q04DX003 (ip), vehicle: DMSO): 116 % of control | T/C (dose: 25.0 mg/kg/injection, schedule: Q04DX003 (ip), vehicle: other): 45 % of control | T/C (dose: 50.0 mg/kg/injection, schedule: Q04DX003 (ip), vehicle: DMSO): 47 % of control

COc1cc2cc3c(c(O)c2c(O)c1/C=C/C(C)C)C(=O)CC(C)(OC(C)=O)C3 (stereo not given)
T/C (dose: 5.0 mg/kg/injection, schedule: Q04DX003 (ip), vehicle: Klucel (hydroxypropylcellulose) (HPC)): 85 % of control | T/C (dose: 10.0 mg/kg/injection, schedule: Q04DX003 (ip), vehicle: Klucel (hydroxypropylcellulose) (HPC)): 66 % of control | T/C (dose: 20.0 mg/kg/injection, schedule: Q04DX003 (ip), vehicle: Klucel (hydroxypropylcellulose) (HPC)): 63 % of control

CN(C)CCCN=c1c2ccccc2n(C)c2[nH]c(=O)n(C)c(=O)c12
T/C [5]: 112 % of control | T/C [6]: 82 % of control

C=Cc1cc(OC)c2c(c1)c(=O)oc1c2cc(OC)c2c(O)ccc(C3OC(C(C)O)C(O)C3O)c21 (stereo not given)
T/C (dose: 37.5 mg/kg/injection, schedule: Q04DX003 (ip), vehicle: Klucel (hydroxypropylcellulose) (HPC)): 91 % of control | T/C (dose: 75.0 mg/kg/injection, schedule: Q04DX003 (ip), vehicle: Klucel (hydroxypropylcellulose) (HPC)): 51 % of control and 70 % of control | T/C (dose: 300.0 mg/kg/injection, schedule: Q04DX003 (ip), vehicle: Klucel (hydroxypropylcellulose) (HPC)): 28 % of control and 29 % of control
